Our source for the T/C values is PubChem BioAssay AID192 (DTP/NCI, 2004).

Each structure is given as a SMILES string. Several values for one entry are separate records, joined by “and”; a condition that tells them apart may be missing. Identical values can stand only once. Inconclusive results and toxic doses are left out.

This test has as its system BDF1 mice, B16 melanoma ip, median survival T/C. Put plainly: NCI In Vivo Anticancer Drug Screen. Data for tumor model B16 Melanoma (intraperitoneal) in B6D2F1 (BDF1) mice. The note with it: endpoint: median survival time, higher = longer survival. In short, it runs like this: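 Read-out: survival or tumor size, given as treated/control ratio. Controls received vehicle only; animals bore transplantable tumors.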

Where [1] appears, read: dose: 1.5 mg/kg/injection, schedule: Q01DX009 (ip), vehicle: saline with Tween-80.
[2] abbreviates: dose: 12.5 mg/kg/injection, schedule: Q01DX009 (ip), vehicle: saline with Tween-80.
[3] abbreviates: dose: 25.0 mg/kg/injection, schedule: Q01DX009 (ip), vehicle: saline with Tween-80.
Where [4] appears, read: dose: 50.0 mg/kg/injection, schedule: Q01DX009 (ip), vehicle: saline with Tween-80.
[5] abbreviates: dose: 100.0 mg/kg/injection, schedule: Q01DX009 (ip), vehicle: saline with Tween-80.
[6] abbreviates: dose: 12.5 mg/kg/injection, schedule: Q01DX009 (ip), vehicle: suspension in saline.
[7] abbreviates: dose: 25.0 mg/kg/injection, schedule: Q01DX009 (ip), vehicle: suspension in saline.
The mark [8] stands for this setting: dose: 100.0 mg/kg/injection, schedule: Q01DX009 (ip), vehicle: suspension in saline.
The mark [9] stands for this setting: dose: 3.12 mg/kg/injection, schedule: Q01DX009 (ip), vehicle: Klucel (hydroxypropylcellulose) (HPC).
[10] abbreviates: dose: 6.25 mg/kg/injection, schedule: Q01DX009 (ip), vehicle: Klucel (hydroxypropylcellulose) (HPC).
Where [11] appears, read: dose: 12.5 mg/kg/injection, schedule: Q01DX009 (ip), vehicle: Klucel (hydroxypropylcellulose) (HPC).
[12] abbreviates: dose: 25.0 mg/kg/injection, schedule: Q01DX009 (ip), vehicle: Klucel (hydroxypropylcellulose) (HPC).
The mark [13] stands for this setting: dose: 50.0 mg/kg/injection, schedule: Q01DX009 (ip), vehicle: Klucel (hydroxypropylcellulose) (HPC).

`C=CC(=O)[O][Pb]([CH3])([CH3])[CH3]`: the T/C reads like this: (dose: 0.75 mg/kg/injection, schedule: Q01DX009 (ip), vehicle: saline with Tween-80) 94 % of control; under setting [1], 95 % of control.

As for `CCOC(=O)C(Cc1ccccc1)NP(=O)(OCCCl)OCCCl` (configuration not stated), the T/C by setting is: (dose: 100.0 mg/kg/injection, schedule: Q04DX003 (ip), vehicle: Klucel (hydroxypropylcellulose) (HPC)) 104 % of control; (dose: 200.0 mg/kg/injection, schedule: Q04DX003 (ip), vehicle: Klucel (hydroxypropylcellulose) (HPC)) 86 % of control.

Consider `CC1OC(OCc2ccc3c(c2)C(=O)c2ccccc2C3=O)CC(N)C1O` (configuration not stated), for which the T/C was 102 % of control (dose: 1.56 mg/kg/injection, schedule: Q01DX009 (ip), vehicle: water); 93 % of control (dose: 3.13 mg/kg/injection, schedule: Q01DX009 (ip), vehicle: water); 115 % of control (dose: 6.25 mg/kg/injection, schedule: Q01DX009 (ip), vehicle: water); 115 % of control (dose: 12.5 mg/kg/injection, schedule: Q01DX009 (ip), vehicle: water); 94 % of control (dose: 50.0 mg/kg/injection, schedule: Q01DX009 (ip), vehicle: water).

In the case of `C=CC(C)NC(=S)NNC(=S)NC` (configuration not stated), the T/C was 97 % of control (dose: 25.0 mg/kg/injection, schedule: Q01DX009 (ip), vehicle: saline + alcohol); 102 % of control (dose: 50.0 mg/kg/injection, schedule: Q01DX009 (ip), vehicle: saline + alcohol); 104 % of control (dose: 100.0 mg/kg/injection, schedule: Q01DX009 (ip), vehicle: saline + alcohol); 98 % of control (dose: 200.0 mg/kg/injection, schedule: Q01DX009 (ip), vehicle: saline + alcohol); 97 % of control (dose: 400.0 mg/kg/injection, schedule: Q01DX009 (ip), vehicle: saline + alcohol).

As for `C=C1C(=O)OC2C1CC1OC2C(C)CCC/C(C)=C\CCC1(C)O` (configuration not stated), the T/C by setting is: under setting [2], 97 % of control; under setting [3], 101 % of control; under setting [4], 100 % of control; under setting [5], 104 % of control.

For `O=S(=O)(O)C(O)c1cccnc1` (configuration not stated), the T/C is 102 % of control under setting [2], 86 % of control under setting [3] and 89 % of control under setting [4].

`CN(C)N=Nc1ccnc2c(Br)cccc12`: the T/C by setting is: (dose: 14.4 mg/kg/injection, schedule: Q01DX009 (ip), vehicle: DMSO) 90 % of control; (dose: 24.0 mg/kg/injection, schedule: Q01DX009 (ip), vehicle: DMSO) 97 % of control; (dose: 40.0 mg/kg/injection, schedule: Q01DX009 (ip), vehicle: DMSO) 90 % of control; (dose: 66.7 mg/kg/injection, schedule: Q01DX009 (ip), vehicle: DMSO) 101 % of control.

Turning to `Cc1cc(C)[c]([Hg][Cl])c(C)c1`, the T/C reads like this: under setting [1], 110 % of control; (dose: 3.0 mg/kg/injection, schedule: Q01DX009 (ip), vehicle: saline with Tween-80) 98 % of control; (dose: 6.0 mg/kg/injection, schedule: Q01DX009 (ip), vehicle: saline with Tween-80) 99 % of control; (dose: 6.25 mg/kg/injection, schedule: Q01DX009 (ip), vehicle: saline with Tween-80) 88 % of control.

Regarding `Cc1cc(O)c(N=Nc2ccc(C(=O)O)cc2)cc1C`, the T/C is, setting by setting: under setting [6], 109 % of control; under setting [7], 106 % of control; (dose: 50.0 mg/kg/injection, schedule: Q01DX009 (ip), vehicle: suspension in saline) 109 % of control; under setting [8], 90 % of control; (dose: 200.0 mg/kg/injection, schedule: Q01DX009 (ip), vehicle: suspension in saline) 87 % of control.

With `COc1ccc(C(N)=O)cc1N=NN(C)C`, the T/C under setting [9] was 111 % of control and 113 % of control; the T/C under setting [10] was 109 % of control and 110 % of control; the T/C under setting [11] is 110 % of control and 111 % of control; the T/C under setting [12] was 115 % of control and 123 % of control; the T/C under setting [13] is 117 % of control.

On to `CCC[CH2][Sn]([Cl])([CH2]CCC)[S]C(=S)NCCNC(=S)[S][Sn]([Cl])([CH2]CCC)[CH2]CCC`, for which the T/C is 94 % of control under setting [9], 96 % of control under setting [10] and 101 % of control under setting [11].

Turning to `CC[S][Hg][Cl]`, the T/C is, setting by setting: (dose: 0.75 mg/kg/injection, schedule: Q04DX003 (ip), vehicle: saline with Tween-80) 93 % of control; (dose: 1.5 mg/kg/injection, schedule: Q04DX003 (ip), vehicle: saline with Tween-80) 100 % of control; (dose: 3.0 mg/kg/injection, schedule: Q04DX003 (ip), vehicle: saline with Tween-80) 97 % of control; (dose: 6.25 mg/kg/injection, schedule: Q04DX003 (ip), vehicle: saline with Tween-80) 86 % of control.

`NC(N)=NC(N)=Nc1ccc(S(=O)(=O)O)cc1`: the T/C under setting [5] is 94 % of control; the T/C (dose: 200.0 mg/kg/injection, schedule: Q01DX009 (ip), vehicle: saline with Tween-80) is 104 % of control; the T/C (dose: 400.0 mg/kg/injection, schedule: Q01DX009 (ip), vehicle: saline with Tween-80) was 98 % of control.

Regarding `C=CCc1cccc(OC)c1OCCN(CC)CC`, the T/C was 88 % of control (dose: 5.0 mg/kg/injection, schedule: Q01DX009 (ip), vehicle: saline with Tween-80); 100 % of control (dose: 10.0 mg/kg/injection, schedule: Q01DX009 (ip), vehicle: saline with Tween-80); 100 % of control (dose: 20.0 mg/kg/injection, schedule: Q01DX009 (ip), vehicle: saline with Tween-80).

`CC(CNCCN)C[Si](C)(C)C` (configuration not stated): the T/C runs as follows: under setting [6], 99 % of control; under setting [7], 96 % of control.

Turning to `CC[C@@]1(O)C[C@H](OC2CC(N(C)C)C(O)C(C)O2)c2c(O)c3c(c(O)c2[C@H]1OC1CC(N(C)C)C(O)C(C)O1)C(=O)c1cccc(O)c1C3=O` (some centres not stated), the T/C (dose: 31.2 micrograms/kg/injection, schedule: Q01DX009 (ip), vehicle: Klucel (hydroxypropylcellulose) (HPC)) was 100 % of control and the T/C (dose: 62.5 micrograms/kg/injection, schedule: Q01DX009 (ip), vehicle: Klucel (hydroxypropylcellulose) (HPC)) was 89 % of control.

As for `CC(=O)OCC(=O)[C@@]12OC(C)(C)O[C@@H]1C[C@H]1[C@@H]3CC(C=O)=C4C=C(OCCCl)CC[C@]4(C)[C@@]3(F)[C@@H](O)C[C@@]12C`, the T/C runs as follows: (dose: 25.0 mg/kg/injection, schedule: Q04DX003 (ip), vehicle: saline with Tween-80) 111 % of control; (dose: 50.0 mg/kg/injection, schedule: Q04DX003 (ip), vehicle: saline with Tween-80) 112 % of control; (dose: 100.0 mg/kg/injection, schedule: Q04DX003 (ip), vehicle: saline with Tween-80) 115 % of control; (dose: 200.0 mg/kg/injection, schedule: Q04DX003 (ip), vehicle: saline with Tween-80) 110 % of control; (dose: 400.0 mg/kg/injection, schedule: Q04DX003 (ip), vehicle: saline with Tween-80) 109 % of control.

Take `O=C1NC(=O)C([N+](=O)[O-])=C(O)C1=O`: the T/C (dose: 75.0 mg/kg/injection, schedule: Q04DX003 (ip), vehicle: other) is 105 % of control and the T/C (dose: 150.0 mg/kg/injection, schedule: Q04DX003 (ip), vehicle: other) was 95 % of control.

On to `O=C1N(CC2CO2)CCN1CC1CO1` (configuration not stated), for which the T/C is, setting by setting: under setting [6], 106 % of control; under setting [7], 124 % of control; under setting [8], 193 % of control.

For `C=C(NC(=O)C(=C)NC(=O)c1csc(C2=NC3c4csc(n4)C4NC(=O)c5csc(n5)C(C(C)(O)C(C)O)NC(=O)C5CSC(=N5)/C(=C/C)NC(=O)C(C(C)O)NC(=O)c5csc(n5)C3(CC2)NC(=O)C(C)NC(=O)C(=C)NC(=O)C(C)NC(=O)C(C(C)CC)NC2C=Cc3c(C(C)O)cc(nc3C2O)C(=O)OC4C)n1)C(N)=O` (configuration not stated), the T/C runs as follows: under setting [13], 106 % of control; (dose: 100.0 mg/kg/injection, schedule: Q01DX009 (ip), vehicle: Klucel (hydroxypropylcellulose) (HPC)) 109 % of control; (dose: 200.0 mg/kg/injection, schedule: Q01DX009 (ip), vehicle: Klucel (hydroxypropylcellulose) (HPC)) 112 % of control.

As to `NC(=S)Nc1cccc(Cl)c1`, the T/C was 106 % of control under setting [11], 102 % of control under setting [12] and 100 % of control under setting [13].
